From patent publication US20190192699A1, “NUCLEAR IMAGING AND RADIOTHERAPEUTICS AGENTS TARGETING CARBONIC ANHYDRASE IX AND USES THEREOF” (THE JOHNS HOPKINS UNIVERSITY, priority 2016, published 2019) come the findings set out here.

“And” between values parts separate entries of the source, which are not always exact repeats. Identical values can stand only once. “Also recorded” adds a separate entry of the source.

Data set [1] relates to CAIX-expressing SK-RC-52 tumors. The experiment in a line: PET/CT imaging of [Al18F]XYIMSR-04. Type of data set: in vivo, mice. The following applies: 7.4 MBq (200 μCi) via tail vein. Here is the method:
(§1) Cell Lines and Mouse Models. Animal experiments were performed in accordance with protocols approved by the Johns Hopkins Animal Care and Use Committee (ACUC). Six-week-old female NOD/SCID mice were purchased from the Animal Resource Core of the Sidney Kimmel Comprehensive Cancer Center of Johns Hopkins and were subcutaneously injected in the lower left flank or upper right flank with 1×10^6 SK-RC-52 cells in RPMI 1640 GlutaMAX™ media (Life Technologies, Frederick, Md.) supplemented with 1% fetal bovine serum (FBS). Mice were monitored for tumor size and used for SPECT/CT imaging when the size of the tumor reached 100 mm^3.
PET/CT imaging of [Al^18F]XYIMSR-04. Mice harboring subcutaneous SK-RC-52 tumors with the lower left flank were injected with 7.4 MBq (200 μCi) of [Al^18F]XYIMSR-04 in 250 μL of PBS (pH=7.0) intravenously (tail vein). Anesthesia was then induced with 3% isofluorane and maintained at 2% isoflurane. Physiologic temperature was maintained with an external light source while the mouse was on the gantry. […] Whole body 2-bed PET scan was performed using ARGUS small-animal PET/CT scanner (Sedecal, Madrid, Spain) at 250-700 keV energy window. PET acquisition times were: 5 min/bed (1 h) post-injection of [Al^18F]XYIMSR-04. PET images were co-registered with the corresponding 360-slice CT images. […]

In data set [2] the test system is SK-RC-52 xenografts. Description: Biodistribution of [Al18F]XYIMSR-04. The data set is classed as in vivo, mice. The following applies: 1 h post-injection. Here is the method: as §1
Biodistribution of [Al^18F]XYIMSR-04. Mice bearing SK-RC-52 xenografts within the lower left flank were injected intravenously with 740 kBq (20 μCi) of [Al^18F]XYIMSR-04 in 200 μL of PBS. At specific 1 hour time point mentioned in the paper, mice (n=5) were sacrificed by cervical dislocation and the blood was immediately collected by cardiac puncture. Heart, lungs, pancreas, spleen, fat, brain, muscle, small intestines, liver, bone, stomach, kidney, urinary bladder, and tumor were collected. Each organ was weighed and the tissue radioactivity was measured with an automated gamma counter (1282 Compugamma CS, Pharmacia/LKBNuclear, Inc., Mt. Waverly, Vic. Australia). The percentage of injected dose per gram of tissue (% ID/g) was calculated by comparison with samples of a standard dilution of the initial dose. All measurements were corrected for radioactive decay. Data were expressed as mean±standard deviation (SD). Prism software (GraphPAD, San Diego, Calif.) was used to determine statistical significance. Statistical significance was calculated using a paired t test. P-values […] were considered significant.

Consider `CC(CCC(=O)N[C@@H](CC(=O)N[C@@H](CC(=O)N[C@@H](CCCCn1cc(CCCC(=O)Nc2nnc(S(N)(=O)=O)s2)nn1)C(=O)NCCOCCOCCNC(=O)CN1CCN2CCN(CC1)CC(=O)[O][Al]([18F])[O]C(=O)C2)C(=O)O)C(=O)O)(c1ccc(O)cc1)c1ccc(O)cc1` [[Al^18F]XYIMSR-04], for which the “PET/CT tumor imaging finding” value in data set [1] is recorded as “radiotracer uptake in tumor at 1 h post-injection; also recorded: tumor visualization by 1 h post-injection”. In data set [2], the “Biodistribution: Bladder” value came to 20.12 ± 12.51 % ID/g, the “Biodistribution: Blood” value is given as 0.65 ± 0.11 % ID/g, the “Biodistribution: Bone” value worked out at 1.91 ± 1.39 % ID/g and the “Biodistribution: Brain” value turned out to be 0.66 ± 0.04 % ID/g. In data set [2], the “Biodistribution: Fat” value stood at 1.54 ± 0.25 % ID/g, the “Biodistribution: Heart” value stood at 5.03 ± 0.51 % ID/g, the “Biodistribution: Kidney (kid)” value came to 50.84 ± 2.65 % ID/g and the “Biodistribution: Liver” value is listed as 5.55 ± 0.91 % ID/g. Further, in data set [2], the “Biodistribution: Lung” value is 34.07 ± 5.85 % ID/g, the “Biodistribution: Muscle (mm)” value is on record as 1.74 ± 0.58 % ID/g, the “Biodistribution: Pancreas” value was found to be 3.47 ± 0.16 % ID/g and the “Biodistribution: Sm. intestine” value is 9.59 ± 1.04 % ID/g. In addition, in data set [2], the “Biodistribution: Spleen” value was 0.54 ± 0.18 % ID/g; the “Biodistribution: Stomach” value is listed as 21.62 ± 1.85 % ID/g; the “Biodistribution: Tumor” value is 14.40 % ID/g and 14.40 ± 2.18 % ID/g; the Tumor/Blood ratio is 22.1 and 22.1 ± 1.5. For the same compound, in data set [2], the “Tumor/kid (kidney) ratio” value is 0.28 and 0.28 ± 0.03; the “Tumor/mm (muscle) ratio” value was 9.74 and 9.74 ± 2.9.
